Source: patent publication US20260306491A1, “EGFR INHIBITOR FOR TREATING CANCERS COMPRISING ATYPICAL EGFR MUTATIONS” (ORIC Pharmaceuticals, Inc., priority 2023, published 2026)

Assay: Clinical study in NSCLC subjects: treatment-related adverse events (Example 10)
Type: in vivo, human
Settings: oral hemifumarate
Protocol: A clinical study was conducted using Compound I in human subjects having non-small cell lung cancer (NSCLC) comprising EGFR exon 20 insertion mutations, HER2 exon 20 insertion mutations, or HER2 amplification or overexpression. A total of 50 human subjects having non-small cell lung cancer comprising one or more EGFR exon 20 insertion mutations, HER2 exon 20 insertion mutations, or HER2 amplification or overexpression were enrolled in the study as of Jul. 31, 2023 with data collected as of Sep. 26, 2023. The subjects were enrolled into one of ten dosing cohorts that were each orally administered Compound I in the form of a hemifumarate salt as shown in Table 13 (QD=once per day; BID=twice per day).
The TRAEs that occurred in equal to or greater than 10% of subjects in the study are set forth in Tables 15 to 18 (TDD=total daily dose; n=number; N/A=not applicable; the term rash includes the following terms: acne, dermatitis, dermatitis acneiform, eczema, hand dermatitis, and rash).

## C=CC(=O)Nc1cc(Nc2cc(N3OCC[C@@H]3c3cc(F)cc(F)c3)ncn2)c(OC)cc1N1CCC(N2CCN(C3CC3)CC2)CC1 [Compound I, N-[2-[4-(4-cyclopropyl-1-piperazinyl)-1-piperidinyl]-5-[[6-[(3R)-3-(3,5-difluorophenyl)-2-isoxazolidinyl]-4-pyrimidinyl]amino]-4-methoxyphenyl]-2-propenamide]
  Dose reductions and discontinuations: infrequent dose reductions and discontinuations
45 mg-60 mg TDD (n = 23)
  Decreased appetite, Grade 1: (22) %
  Decreased appetite, Grade 1, number of subjects: 5 n
  Decreased appetite, Grade 2: (4) %
  Decreased appetite, Grade 2, number of subjects: 1 n
  Diarrhea, Grade 1: (30) %
  Diarrhea, Grade 1, number of subjects: 7 n
  Diarrhea, Grade 2: (9) %
  Diarrhea, Grade 2, number of subjects: 2 n
  Diarrhea, Grade 3: 9%
  Diarrhea, Grade 3, number of subjects: 2 n
  Dose discontinuations: 4%
  Dose discontinuations, number: 1 n
  Dose reductions: 13%
  Dose reductions, number: 3 n
  Nausea, Grade 1: (9) %
  Nausea, Grade 1, number of subjects: 2 n
  Nausea, Grade 2: (9) %
  Nausea, Grade 2, number of subjects: 2 n
  Paronychia, Grade 1: (17) %
  Paronychia, Grade 1, number of subjects: 4 n
  Paronychia, Grade 2: (17) %
  Paronychia, Grade 2, number of subjects: 4 n
  Pruritis, Grade 1: (17) %
  Pruritis, Grade 1, number of subjects: 4 n
  Pruritis, Grade 2: (9) %
  Pruritis, Grade 2, number of subjects: 2 n
  Pruritis, Grade 3: 4%
  Pruritis, Grade 3, number of subjects: 1 n
  Rash, Grade 1: (26) %
  Rash, Grade 1, number of subjects: 6 n
  Rash, Grade 2: (26) %
  Rash, Grade 2, number of subjects: 6 n
  Stomatitis, Grade 1: (9) %
  Stomatitis, Grade 1, number of subjects: 2 n
  Stomatitis, Grade 2: (9) %
  Stomatitis, Grade 2, number of subjects: 2 n
  Stomatitis, Grade 3: 4%
  Stomatitis, Grade 3, number of subjects: 1 n
  Vomiting, Grade 1: (9) %
  Vomiting, Grade 1, number of subjects: 2 n
<45 mg TDD (n = 18)
  Decreased appetite, Grade 2: (6) %
  Decreased appetite, Grade 2, number of subjects: 1 n
  Diarrhea, Grade 1: (11) %
  Diarrhea, Grade 1, number of subjects: 2 n
  Diarrhea, Grade 2: (11) %
  Diarrhea, Grade 2, number of subjects: 2 n
  Dose discontinuations: 9%
  Dose discontinuations, number: 1 n
  Dose reductions: 18%
  Dose reductions, number: 2 n
  Nausea, Grade 1: (6) %
  Nausea, Grade 1, number of subjects: 1 n
  Paronychia, Grade 1: (6) %
  Paronychia, Grade 1, number of subjects: 1 n
  Paronychia, Grade 2: (11) %
  Paronychia, Grade 2, number of subjects: 2 n
  Pruritis, Grade 1: (11) %
  Pruritis, Grade 1, number of subjects: 2 n
  Rash, Grade 1: (33) %
  Rash, Grade 1, number of subjects: 6 n
  Rash, Grade 2: (22) %
  Rash, Grade 2, number of subjects: 4 n
  Stomatitis, Grade 1: (22) %
  Stomatitis, Grade 1, number of subjects: 4 n
  Stomatitis, Grade 2: (11) %
